For this test, the target named is human neprilysin (EC 3.4.24.11; NEP) (Homo sapiens (Human), UniProt P08473). Description: In vitro enzyme inhibition assay at human NEP (fluorogenic peptide substrate). It counts as biochemical. The following applies: pKi values at human NEP, recombinant human NEP. The method, boiled down: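 Recombinant human NEP preincubated 30 min at 37 °C with compound (10 μM down to pM), then 10 μM Mca-D-Arg-Arg-Leu-Dap-(Dnp)-OH in 50 mM HEPES pH 7.5, 100 mM NaCl, 0.01% Tween-20, 10 μM ZnSO4. Stopped after 20 min with acetic acid; fluorescence Ex320/Em405; Ki by nonlinear fit, reported as pKi.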
human neprilysin (EC 3.4.24.11; NEP), sequence (P08473 52-750): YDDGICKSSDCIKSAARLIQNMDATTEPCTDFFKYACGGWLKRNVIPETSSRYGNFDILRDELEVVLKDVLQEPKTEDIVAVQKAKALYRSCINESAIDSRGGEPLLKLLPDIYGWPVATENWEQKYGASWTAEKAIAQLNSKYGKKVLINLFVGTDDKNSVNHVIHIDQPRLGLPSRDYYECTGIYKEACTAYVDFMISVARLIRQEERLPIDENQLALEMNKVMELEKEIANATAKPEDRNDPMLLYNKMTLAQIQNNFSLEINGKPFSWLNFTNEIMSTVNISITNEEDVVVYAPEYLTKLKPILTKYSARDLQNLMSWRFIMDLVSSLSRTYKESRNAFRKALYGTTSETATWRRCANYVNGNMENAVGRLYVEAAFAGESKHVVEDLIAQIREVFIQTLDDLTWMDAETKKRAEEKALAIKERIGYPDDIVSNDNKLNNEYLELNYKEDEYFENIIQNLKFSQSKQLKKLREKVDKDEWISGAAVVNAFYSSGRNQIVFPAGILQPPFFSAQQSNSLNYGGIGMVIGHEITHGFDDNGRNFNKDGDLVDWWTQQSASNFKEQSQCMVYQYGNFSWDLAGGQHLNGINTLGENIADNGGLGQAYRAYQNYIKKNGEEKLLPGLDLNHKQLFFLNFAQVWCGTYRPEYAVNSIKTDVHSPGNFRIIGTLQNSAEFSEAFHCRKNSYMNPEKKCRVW

For `CC(C)(c1ccc(-c2ccccc2)cc1)[C@H](C[C@@H](O)C(=O)O)NC(=O)c1cc(C(=O)O)n[nH]1` [Example 24, 5-[(S)-2-Biphenyl-4-yl-1-((R)-2-carboxy-2-hydroxy-ethyl)-2-methyl-propylcarbamoyl]-1H-pyrazole-3-carboxylic Acid], the pKi (as a rule, −log10 of the Ki, conventionally taken in molar units) is at least 9.0. Take `CC(C)(c1ccc(-c2ccccc2)cc1)[C@H](C[C@@H](O)C(=O)O)NC(=O)c1c[nH]nn1` [Example 25-1, (2R,4S)-5-Biphenyl-4-yl-2-hydroxy-5-methyl-4-[(1H-[1,2,3]triazole-4-carbonyl)-amino]-hexanoic acid]: the Ki – broadly, a dissociation constant, usually derived from enzyme kinetics or from competition with a known ligand – is 12.6 to 100 nM. As for `CC(C)(c1ccc(-c2ccccc2)cc1)[C@H](C[C@@H](O)C(=O)O)NC(=O)c1cn(O)nn1` [Example 25-2, (2R,4S)-5-Biphenyl-4-yl-2-hydroxy-4-[(1-hydroxy-1H-[1,2,3]triazole-4-carbonyl)-amino]-5-methyl-hexanoic acid], the Ki was 1.26 to 10 nM. Regarding `CC(C)(c1ccc(-c2ccccc2)cc1)[C@H](C[C@@H](O)C(=O)O)NC(=O)c1cc(O)no1` [Example 25-3, (2R,4S)-5-Biphenyl-4-yl-2-hydroxy-4-[(3-hydroxy-isoxazole-5-carbonyl)-amino]-5-methyl-hexanoic acid], the pKi is at least 9.0.

For the origin of these results see patent US10759813B2, “Neprilysin inhibitors” (THERAVANCE BIOPHARMA R&D IP, LLC, priority 2010, dated 2020).
